From patent publication US20230357307A1, “CLEAVABLE CYCLIC LOOP NUCLEOTIDES FOR NANOPORE SEQUENCING” (ILLUMINA, INC., priority 2022, published 2023)

System: polymerase
Experiment: polymerase incorporation of allyl dTTP (FIG. 7 gel)
Type: biochemical
Settings: homopolymeric A template
From the text: A polymerase incorporated “allyl dTTP” and “ext allyl dTTP” to a template and primer combination, as indicated by the arrow in FIG. 7, for up to 10 successive incorporations. The reaction conditions as well as the definitions of “allyl dTTP” and “ext allyl dTTP” are given in the right panel of FIG. 7. Moreover, “A” and “B” are referring to the optically pure diastereomers arising from the C5′ allyl carbon center.
Lanes 1 (starting from the left), 3, 5, 7, 9 and 11 were loaded with reactions run for an hour; and Lanes 2, 4, 6, 8, 10 and 12 were loaded with reactions run for 22 hours. Lanes 1 and 2 show: controls with natural dTTP without any arresting constructs (Note, bands above +10 are seen due to the use of a homopolymeric A template, a common observation). Lanes 3 and 4 show: one isomer of Allyl dTTP (“Allyl A dTTP”) is used, the isomer arise from the C-stereogenic center (marked with “+” in the structure shown on the right panel of FIG. 7). Up to +7 incorporation observed after 1 h. […] Lanes 5 and 6 show: one isomer of ext allyl dTTP (“Ext Allyl A dTTP”) is used. Up to +7 incorporation observed after 22h. Slower incorporation possibly due to increased sterics. Lanes 7 and 8 show: the other isomer of Allyl dTTP (“Allyl B dTTP”) is used. Up to +10 incorporation observed after 22h. Lanes 9 and 10 show: the other isomer of ext allyl dTTP (“Ext Allyl B dTTP”) is used. […]

Cc1cn([C@H]2C[C@H](O)[C@@H](COP(=O)(O)OP(=O)(O)OP(=O)(O)O)O2)c(=O)[nH]c1=O [dTTP]
incorporation observed (primer +n) (reactions run for 22 hours): above +10
incorporation observed (primer +n) (reactions run for an hour): above +10
